Experimental data published in patent publication US8586591B2, “Aminopyrazine derivative and medicine” (Nippon Shinyaku Co., Ltd., priority 2009, dated 2013).
Counter-ions that a name gives are not always drawn.

Key:
[1] = target: T1, JAK2 tyrosine kinase (Homo sapiens, UniProt O60674); assay: Test 1: inhibitory activity to JAK2 tyrosine kinase (ELISA); format: biochemical; settings: 25 μM ATP in substrate solution, 30° C. for 1 hour, n=2
T1 construct: purchased Carnabioscience Co
Procedure, shortened: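 Human JAK2 (diluted to 0.75 nM before addition) phosphorylated a biotinylated peptide on streptavidin plates for 1 h at 30 °C. The substrate mix held 625 nM peptide, 25 μM ATP and 25 mM MgCl2 in 15 mM Tris pH 7.5, 0.01% Tween-20 and 1 mM DTT. Phosphotyrosine was detected by HRP antibody/TMB at 450 nm, and IC50 was obtained by non-linear regression; duplicates were run.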

[2] = target: T2, JAK3 tyrosine kinase (Homo sapiens, UniProt P52333); assay: Test 1: inhibitory activity to JAK3 tyrosine kinase (ELISA); format: biochemical; settings: 25 μM ATP in substrate solution, 30° C. for 1 hour, n=2
T2 construct: purchased Carnabioscience Co
T2 sequence (P52333 1-1124): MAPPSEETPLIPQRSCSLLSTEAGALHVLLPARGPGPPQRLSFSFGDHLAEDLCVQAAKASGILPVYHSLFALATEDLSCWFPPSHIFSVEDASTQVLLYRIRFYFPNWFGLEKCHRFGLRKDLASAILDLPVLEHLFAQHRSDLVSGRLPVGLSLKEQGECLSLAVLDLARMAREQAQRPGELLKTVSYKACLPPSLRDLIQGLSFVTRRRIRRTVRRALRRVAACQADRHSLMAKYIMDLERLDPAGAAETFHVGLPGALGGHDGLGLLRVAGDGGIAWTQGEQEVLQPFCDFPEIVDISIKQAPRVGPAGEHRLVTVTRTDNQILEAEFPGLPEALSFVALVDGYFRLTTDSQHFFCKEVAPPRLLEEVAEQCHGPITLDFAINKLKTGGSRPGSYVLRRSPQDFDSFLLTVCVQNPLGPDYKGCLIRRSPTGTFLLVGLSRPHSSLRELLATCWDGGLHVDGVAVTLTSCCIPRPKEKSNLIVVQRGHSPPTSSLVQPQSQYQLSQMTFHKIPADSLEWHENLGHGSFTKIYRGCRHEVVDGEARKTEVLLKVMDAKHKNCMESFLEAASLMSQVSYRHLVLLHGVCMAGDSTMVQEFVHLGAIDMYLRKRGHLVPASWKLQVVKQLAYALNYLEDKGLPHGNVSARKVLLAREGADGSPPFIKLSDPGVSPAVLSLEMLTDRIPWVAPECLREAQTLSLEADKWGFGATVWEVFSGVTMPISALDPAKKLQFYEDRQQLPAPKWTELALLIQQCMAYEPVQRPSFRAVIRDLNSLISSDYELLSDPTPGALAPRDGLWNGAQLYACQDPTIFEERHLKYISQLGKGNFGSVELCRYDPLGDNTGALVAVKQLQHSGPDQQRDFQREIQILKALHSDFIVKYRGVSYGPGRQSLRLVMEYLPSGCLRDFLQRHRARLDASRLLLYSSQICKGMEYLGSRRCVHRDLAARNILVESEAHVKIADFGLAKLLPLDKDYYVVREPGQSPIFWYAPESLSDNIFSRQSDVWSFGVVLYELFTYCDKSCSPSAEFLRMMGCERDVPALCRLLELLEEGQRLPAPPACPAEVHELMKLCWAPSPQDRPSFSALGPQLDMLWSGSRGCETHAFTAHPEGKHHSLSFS
Procedure, shortened: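 ELISA of JAK3 kinase activity with absorbance read at 450 nm. Compounds were tested from DMSO dilution series at 100-fold the measurement concentrations (1000–0.01 μM), diluted up to 20 times in assay buffer, against a DMSO negative control. IC50 was estimated by non-linear regression of absorbance.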

T1 sequence (O60674 whole entry): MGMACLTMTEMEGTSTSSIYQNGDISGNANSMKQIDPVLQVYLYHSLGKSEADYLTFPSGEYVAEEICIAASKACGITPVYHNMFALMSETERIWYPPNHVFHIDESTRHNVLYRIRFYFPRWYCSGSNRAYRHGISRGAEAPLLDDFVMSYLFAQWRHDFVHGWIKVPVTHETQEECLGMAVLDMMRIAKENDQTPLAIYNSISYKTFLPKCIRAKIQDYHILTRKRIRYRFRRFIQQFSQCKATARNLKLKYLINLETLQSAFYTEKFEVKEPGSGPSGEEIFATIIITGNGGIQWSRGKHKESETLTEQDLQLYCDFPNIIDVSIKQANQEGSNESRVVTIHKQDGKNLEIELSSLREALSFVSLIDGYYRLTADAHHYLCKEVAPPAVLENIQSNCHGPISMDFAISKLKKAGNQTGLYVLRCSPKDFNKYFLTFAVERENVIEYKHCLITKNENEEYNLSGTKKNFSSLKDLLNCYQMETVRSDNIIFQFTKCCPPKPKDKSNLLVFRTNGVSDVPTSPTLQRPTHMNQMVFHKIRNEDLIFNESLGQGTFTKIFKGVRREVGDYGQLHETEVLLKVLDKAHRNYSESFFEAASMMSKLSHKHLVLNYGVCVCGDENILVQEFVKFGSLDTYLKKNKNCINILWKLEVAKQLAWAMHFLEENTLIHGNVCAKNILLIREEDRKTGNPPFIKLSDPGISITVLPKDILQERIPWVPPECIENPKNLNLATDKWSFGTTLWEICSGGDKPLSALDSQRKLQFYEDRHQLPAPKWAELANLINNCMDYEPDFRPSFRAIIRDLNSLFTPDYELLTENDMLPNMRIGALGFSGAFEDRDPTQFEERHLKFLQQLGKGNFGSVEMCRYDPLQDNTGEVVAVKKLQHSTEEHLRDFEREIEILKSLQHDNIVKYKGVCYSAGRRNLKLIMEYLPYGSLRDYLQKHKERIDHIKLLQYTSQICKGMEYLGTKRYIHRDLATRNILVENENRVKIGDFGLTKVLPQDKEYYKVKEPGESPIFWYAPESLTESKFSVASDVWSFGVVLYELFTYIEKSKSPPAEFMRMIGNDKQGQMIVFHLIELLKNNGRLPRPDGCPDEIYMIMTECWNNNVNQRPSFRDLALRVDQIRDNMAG

Compound	IC50 [1]	IC50 [2]
CC(C)NC(=O)C1CN(c2cc(Nc3cnccn3)nc(N[C@@H](C)c3ccc(F)cc3)n2)C1 [Example 191, (S)-1-{2-[1-(4-Fluorophenyl)ethylamino]-6-(pyrazin-2-ylamino)pyrimidin-4-yl}-N-isopropylazetidine-3-carboxamide]	0.0014 µM	0.031 µM
C[C@H](Nc1cc(-c2ccc(C(N)=O)cc2)cc(Nc2cnccn2)n1)c1ccc(F)cc1 [Example 115, (S)-4-{2-[1-(4-Fluorophenyl)ethylamino]-6-(pyrazin-2-ylamino)pyridin-4-yl}benzamide dihydrochloride]	0.0023 µM	0.21 µM
CNC(=O)C1CN(c2cc(Nc3cnccn3)nc(N[C@@H](C)c3ccc(F)cc3)n2)C1 [Example 174]	0.00099 µM	0.047 µM
C[C@H](Nc1nc(Nc2cnccn2)cc(N2CCCC(O)C2)n1)c1ccc(F)cc1 (stereo partly drawn) [Example 73, 1-{2-[(S)-1-(4-Fluorophenyl)ethylamino]-6-(pyrazin-2-ylamino)pyrimidin-4-yl}piperidin-3-ol hydrochloride]	0.0013 µM	0.048 µM
C[C@H](Nc1nc(Nc2cnccn2)cc(-c2cccnc2)n1)c1ccc(F)cc1 [Example 13, (S)—N^2-[1-(4-Fluorophenyl)ethyl]-N^4-(pyrazin-2-yl)-6-(pyridin-3-yl)pyrimidine-2,4-diamine]	0.0013 µM	0.071 µM
C[C@H](Nc1cc(N2CC(C)(O)C2)cc(Nc2cnccn2)n1)c1ccc(F)cc1 [Example 205, (S)-1-{2-[1-(4-Fluorophenyl)ethylamino]-6-(pyrazin-2-ylamino)pyridin-4-yl}-3-methylazetidin-3-ol hydrochloride]	0.0028 µM	0.17 µM
CNC(=O)c1ccc(Nc2cnccn2)nc1N[C@@H](C)c1ccc(F)cc1 [Example 185, (S)-2-[1-(4-Fluorophenyl)ethylamino]-N-methyl-6-(pyrazin-2-ylamino)nicotinamide]	0.0042 µM	0.38 µM
C[C@H](Nc1nc(Nc2cnccn2)cc(N2CCCC2=O)n1)c1ccc(F)cc1 [Example 16, (S)-1-{2-[1-(4-Fluorophenyl)ethylamino]-6-(pyrazin-2-ylamino)pyrimidin-4-yl}pyrrolidin-2-one]	0.008 µM	0.63 µM
COC1(C)CN(c2cc(Nc3cnccn3)nc(N[C@@H](C)c3ccc(F)cc3)c2)C1 [Example 213, (S)—N^2-[1-(4-Fluorophenyl)ethyl]-4-(3-methoxy-3-methylazetidin-1-yl)-N^6-(pyrazin-2-yl)pyridine-2,6-diamine hydrochloride]	0.0032 µM	0.13 µM
C[C@H](Nc1nc(Nc2cnccn2)cc(N(CCO)CCO)n1)c1ccc(F)cc1 [Example 61, (S)-2-({2-[1-(4-Fluorophenyl)ethylamino]-6-(pyrazin-2-ylamino)pyrimidin-4-yl}(2-hydroxyethyl)amino)ethan-1-ol hydrochloride]	0.006 µM	0.15 µM
C[C@H](Nc1cc(-c2cnn(CC3CC3)c2)cc(Nc2cnccn2)n1)c1ccc(F)cc1 [Example 48, (S)-4-[1-(Cyclopropylmethyl)-1H-pyrazol-4-yl]-N^2-[1-(4-fluorophenyl)ethyl]-N^6-(pyrazin-2-yl)pyridine-2,6-diamine]	0.006 µM	0.14 µM
C[C@H](Nc1nc(Nc2cnccn2)cc(-c2ccc(C(N)=O)nc2)n1)c1ccc(F)cc1 [Example 57, (S)-5-{2-[1-(4-Fluorophenyl)ethylamino]-6-(pyrazin-2-ylamino)pyrimidin-4-yl}picolinamide]	0.0013 µM	0.082 µM
C[C@H](Nc1nc(Nc2cnccn2)cc(N2CCN(S(C)(=O)=O)CC2)n1)c1ccc(Cl)cc1 [Example 100, (S)—N^2-[1-(4-Chlorophenyl)ethyl]-6-[4-(methylsulfonyl)piperazin-1-yl]-N^4-(pyrazin-2-yl)pyrimidine-2,4-diamine hydrochloride]	0.00052 µM	0.047 µM
C[C@H](Nc1nc(Nc2cnccn2)cc(N2CC(CNC(=O)OC(C)(C)C)C2)n1)c1ccc(F)cc1 [Example 229, t-Butyl (S)-(1-{2-[1-(4-fluorophenyl)ethylamino]-6-(pyrazin-2-ylamino)pyrimidin-4-yl}azetidin-3-yl)methyl carbamate]	0.0039 µM	0.18 µM
C[C@H](Nc1nc(NCc2cccnc2)cc(Nc2cnccn2)n1)c1ccc(F)cc1 [Example 107, (S)—N^2-[1-(4-Fluorophenyl)ethyl]-N^4-(pyrazin-2-yl)-N^6-(pyridin-3-ylmethyl)pyrimidine-2,4,6-triamine]	0.00077 µM	0.056 µM
C[C@H](Nc1nc(Nc2cnccn2)cc(N2CC(C(=O)N3CCOCC3)C2)n1)c1ccc(F)cc1 [Example 196, (S)-(1-{2-[1-(4-Fluorophenyl)ethylamino]-6-(pyrazin-2-ylamino)pyrimidin-4-yl}azetidin-3-yl) (morpholino) methanone]	0.00064 µM	0.035 µM
C[C@H](Nc1cc(N2CCC(O)(CO)CC2)cc(Nc2cnccn2)n1)c1ccc(F)cc1 [Example 125, (S)-1-{2-[1-(4-Fluorophenyl)ethylamino]-6-(pyrazin-2-ylamino)pyridin-4-yl}-4-(hydroxymethyl)piperidin-4-ol]	0.0016 µM	0.13 µM
C[C@H](Nc1nc(Nc2cnccn2)cc(N2CC(NC(N)=O)C2)n1)c1ccc(F)cc1 [Example 227, (S)-1-(1-{2-[1-(4-Fluorophenyl)ethylamino]-6-(pyrazin-2-ylamino)pyrimidin-4-yl}azetidin-3-yl)urea]	0.0011 µM	0.02 µM
C[C@H](Nc1nc(Nc2cnccn2)cc(-c2cncc(C#N)c2)n1)c1ccc(F)cc1 [Example 74, (S)-5-{2-[1-(4-Fluorophenyl)ethylamino]-6-(pyrazin-2-ylamino)pyrimidin-4-yl}nicotinonitrile]	0.0038 µM	0.23 µM
CCNC(=O)C1CN(c2cc(Nc3cnccn3)nc(N[C@@H](C)c3ccc(F)cc3)n2)C1 [Example 180, (S)—N-Ethyl-1-{2-[1-(4-fluorophenyl)ethylamino]-6-(pyrazin-2-ylamino)pyrimidin-4-yl}azetidine-3-carboxamide]	0.0025 µM	0.052 µM
C[C@H](Nc1nc(Nc2cnccn2)cc(N2CCC[C@@H]2CO)n1)c1ccc(F)cc1 [Example 70, ((R)-1-{2-[(S)-1-(4-Fluorophenyl)ethylamino]-6-(pyrazin-2-ylamino)pyrimidin-4-yl}pyrrolidin-2-yl)methanol hydrochloride]	0.0015 µM	0.065 µM
C[C@H](Nc1nc(Nc2cnccn2)cc(N2CCC(C(=O)NS(C)(=O)=O)CC2)n1)c1ccc(F)cc1 [Example 122, (S)-1-{2-[1-(4-Fluorophenyl)ethylamino]-6-(pyrazin-2-ylamino)pyrimidin-4-yl}-N-(methylsulfonyl)piperidine-4-carboxamide]	0.0004 µM	0.03 µM
C[C@H](Nc1nc(Nc2cnccn2)cc(-c2cc[nH]n2)n1)c1ccc(F)cc1 [Example 24, (S)—N^2-[1-(4-Fluorophenyl)ethyl]-N^4-(pyrazin-2-yl)-6-(1H-pyrazol-3-yl)pyrimidine-2,4-diamine hydrochloride]	0.0011 µM	0.053 µM
C[C@H](Nc1cc(-c2cnn(C3CC3)c2)cc(Nc2cnccn2)n1)c1ccc(F)cc1 [Example 218, (S)-4-(1-Cyclopropyl-1H-pyrazol-4-yl)-N^2-[1-(4-fluorophenyl)ethyl]-N^6-(pyrazin-2-yl)pyridine-2,6-diamine]	0.0022 µM	0.085 µM
COc1ncc(-c2cc(Nc3cnccn3)nc(N[C@@H](C)c3ccc(F)cc3)n2)s1 [Example 53, (S)—N^2-[1-(4-Fluorophenyl)ethyl]-6-(2-methoxythiazol-5-yl)-N^4-(pyrazin-2-yl)pyrimidine-2,4-diamine]	0.0059 µM	0.39 µM
